Experimental data: ChEMBL document CHEMBL1151119, “Isolation and structure of the cytostatic lignan glycoside phyllanthostatin A” (1988)
Values after ≈ are worked out from the molar mass of the structure shown.

Tested on: P388
Test: Cytotoxicity against mouse P388 cells
Format: functional
Settings: read-out: ED50 (the source's name)

Q: For COc1cc2cc(COC(C)=O)c(C(=O)O[C@@H]3O[C@H](CO)[C@@H](O)[C@H](O)[C@H]3O)c(-c3ccc4c(c3)OCO4)c2cc1OC [PHYLLANTHOSTATIN A], which EC50 is on record?
A: 4 µg/mL (≈ 6.82 µM)
